Tested on: megakaryocyte colony formation (bone marrow cells)
Assay: Megakaryocyte colony formation-stimulating activity
Type: cell-based, BALB/c mouse
Settings: 1 nM; control (IL-3 alone) defined as 100; IL-3 100 U/ml; 7 days
Method: Megakaryocyte colony formation-stimulating activity
An eight-weeks-old BALB/c mouse was killed. Its femurs and cervical vertebrae were taken out, and both end sections thereof were cut off. Bone marrow cells were collected from the pieces cut off from the femurs and cervical vertebrae using a syringe containing IMDM (430-2200EA prepared by Gibco Co.), and then blown into a test tube. The test tube was allowed to stand for 5 minutes, and the supernatant was collected with a pipet. To a reaction mixture comprising the bone marrow cells (50,000 cells), bovine serum albumin (2%: A4508 made by Sigma Co.), transferrin (600 μg/ml: 652202 made by Boehringer Mannheim Co.), IL-3 (100 U/ml), cholesterol (16 μg/ml: 036-0641 made by Wako Co.) and agar (0.6%: 0142-02 made by Difco Laboratories) were separately added the test compounds at various concentrations, and 1 ml each of the mixtures was put into a 35-mm dish (Lux Co.), followed by incubation under the conditions of 37° C., 5% CO2 and a humidity of 95% or more for 7 days. Separately, IL-3 alone was added to the bone marrow cells to prepare a control. After the incubation was completed, the agar was dried over a filter paper (1001-055 made by Whatman Co.) and then fixed with 2.5% glutaraldehyde, followed by acetylcholinesterase staining (ACHE staining).
The ACHE staining was carried out by the method described below.
ACHE staining: To each sample was added a solution comprising 0.67 mg/ml acetylthiocholine iodide, 2.94 mg/ml sodium citrate, 7.5 mg/ml copper (II) sulfate and 1.65 mg/ml potassium ferricyanide, and the mixture was allowed to stand at room temperature in the dark for 4-6 hours.
A group of 4 or more megakaryocytes which were stained reddish brown was regarded as a colony, and the number of colonies per dish was calculated using a microscope. The results are shown in Table 2 as relative values to the control.

Row | SMILES | Rel. Value (megakaryocyte colonies per dish relative to the control)
1 | CN1Cc2c(c3c4ccccc4n(C)c3c3c2c2ccccc2n3C)C1=O [Compound 9] | 128
2 | CN1Cc2c(c3c4ccccc4n(Cc4ccc(N(C)C)cc4)c3c3c2c2ccccc2n3Cc2ccc(N(C)C)cc2)C1=O [Compound 20] | 140
3 | CNCCCn1c2ccccc2c2c3c(c4c5ccccc5n(C)c4c21)C(=O)N(C)C3=O [Compound 26] | 117
4 | CN1Cc2c(c3c4ccccc4[nH]c3c3[nH]c4ccccc4c23)C1=O [Compound 80] | 111
5 | C=CCn1c2ccccc2c2c3c(c4c5ccccc5n(CC=C)c4c21)C(=O)N(C)C3=O [Compound 82] | 101
6 | CN1C(=O)c2c(c3c4ccccc4n(CC(O)CO)c3c3[nH]c4ccccc4c23)C1=O (stereo not drawn) [Compound 83] | 111
7 | CCOC(=O)Cn1c2ccccc2c2c3c(c4c5ccccc5n(CC(=O)OCC)c4c21)C(=O)NC3 [Compound 85] | 125
8 | O=C1NCc2c1c1c3ccccc3n(CCCO)c1c1c2c2ccccc2n1CCCO [Compound 86] | 131
9 | O=C1NCc2c1c1c3ccccc3[nH]c1c1c2c2ccccc2n1CCCN1CCOCC1 [Compound 88] | 120
10 | O=C1c2c(c3c4ccccc4[nH]c3c3[nH]c4ccccc4c23)CN1C1CCCCO1 (stereo not drawn) [Compound 89] | 110
11 | Cn1c2ccccc2c2c3c(c4c5ccccc5n(C)c4c21)C(=O)NC3 [Compound 91] | 111
12 | CN1C(=O)C(c2c[nH]c3ccccc23)=C(c2c[nH]c3ccccc23)C1=O [Compound 93] | 109
13 | CCN(CC)CCCn1c2ccc(Br)cc2c2c3c(c4c5cc(Br)ccc5n(C)c4c21)C(=O)N(C)C3=O [Compound 110] | 137

Same assay, conditions: 10 nM; control (IL-3 alone) defined as 100; IL-3 100 U/ml; 7 days

Row | SMILES | Rel. Value (megakaryocyte colonies per dish relative to the control)
14 | C=CCn1c2ccccc2c2c3c(c4c5ccccc5[nH]c4c21)C(=O)N(C)C3=O [Compound 81] | 113
15 | CN1C(=O)c2c(c3c4ccccc4n(CC(O)CO)c3c3c2c2ccccc2n3CC(O)CO)C1=O (stereo not drawn) [Compound 84] | 132
16 | O=C1NCc2c1c1c3ccccc3n(Cc3ccccc3)c1c1c2c2ccccc2n1Cc1ccccc1 [Compound 90] | 106

Tested on: platelets
Assay: Platelet Production-Stimulating Activity in Mice
Type: in vivo, BALB/c mice
Settings: 20 mg/kg i.p. once a day, day 1 to 5; blood on day 15; vs solvent control
Excerpt: Platelet Production-Stimulating Activity in Mice
A test compound was intraperitoneally administered to four 7-week-old male BALB/c mice per group once a day for consecutive 5 days (day 1 to day 5). A control group (4 mice per group) received only the solvent (5% Tween 80/water). The blood was collected from the fundus oculi vein of each animal on the 15th day from the start of administration (day 15), and the number of the platelets was counted with a microcell counter (Model CC-180A, manufactured by Toa Iryo Denshi Co.). The rate of increase of the number of platelets in the test group (average) over the control (average) was calculated according to the following formula to evaluate the effect of the test compound.
A: the number of platelets in test group
B: the number of platelets in control group

Row | SMILES | Rate of increase (number of platelets, A/B×100) [%]
17 | CN(C)CCCn1c2ccccc2c2c3c(c4c5ccccc5n(C)c4c21)C(=O)N(C)C3=O [Compound 25] | 151

Same assay, conditions: 25 mg/kg i.p. once a day, day 1 to 5; blood on day 15; vs solvent control

Row | SMILES | Rate of increase (number of platelets, A/B×100) [%]
18 | CCN(CC)CCCn1c2ccc(O)cc2c2c3c(c4c5cc(O)ccc5n(C)c4c21)C(=O)N(C)C3=O [Compound 108] | 179

Same assay, conditions: 40 mg/kg i.p. once a day, day 1 to 5; blood on day 15; vs solvent control

Row | SMILES | Rate of increase (number of platelets, A/B×100) [%]
19 | CCN(CC)CCCn1c2ccccc2c2c3c(c4c5ccccc5n(C)c4c21)C(=O)N(C)C3=O [Compound 27] | 187
20 | CCCN(C)CCCn1c2ccccc2c2c3c(c4c5ccccc5n(C)c4c21)C(=O)N(C)C3=O [Compound 31] | 161
21 | CCN(CC)CCCn1c2ccc(Br)cc2c2c3c(c4c5cc(Br)ccc5n(C)c4c21)C(=O)N(C)C3=O [Compound 110] | 184

Reference: US5629304A, “Therapeutic agent for thrombocytopenia and indolocarbazole derivatives” (Kyowa Hakko Kogyo Co., Ltd., priority 1994, dated 1997)
